Laboratory results reported in patent US4546176A, “7-Carboxymethoxyphenylacetamido-3-cephem derivatives and antibacterial preparations containing the same” (Eisai Co., Ltd., priority 1982, dated 1985).
In brackets after ≈: the same amount, converted by molar mass.

Key:
Staph. aureus 209-P = assay: Antibacterial activities (MIC), Staph. aureus 209-P; format: cell-based; settings: Staphylococcus aureus
Text: (§1) (1) Antibacterial activities (MIC):

Escher. coli NIHJ = assay: Antibacterial activities (MIC), Escher. coli NIHJ; format: cell-based; settings: Escherichia coli
Text: as §1

Kleb. pneumoniae EK-6 = assay: Antibacterial activities (MIC), Kleb. pneumoniae EK-6; format: cell-based; settings: Klebsiella pneumoniae, EK6
Text: as §1

Proteus morganii EP-14 = assay: Antibacterial activities (MIC), Proteus morganii EP-14; format: cell-based; settings: Morganella morganii, EP14
Text: as §1

Pseud. aeruginosa EP-01 = assay: Antibacterial activities (MIC), Pseud. aeruginosa EP-01; format: cell-based; settings: Pseudomonas aeruginosa, EP01
Text: as §1

Ser. marcescens ES-75 = assay: Antibacterial activities (MIC), Ser. marcescens ES-75; format: cell-based; settings: Serratia marcescens, ES75
Text: as §1

Proteus vulgaris E-18 = assay: Antibacterial activities (MIC), Proteus vulgaris E-18 (lactamase producing); format: cell-based; settings: E18; Proteus vulgaris E-18, lactamase producing bacteria
Text: as §1
*Lactamase producing bacteria.

[1] = Acute toxicity LD50 (mouse, oral); settings: in vivo
Text: The acute toxicity values [LD50 (mouse, oral)] of the following compounds were each 4 g/kg or greater;

[2] = Urinary excretion rate in mice; format: in vivo, ICR male mice; settings: mouse, sc, 20 mg/kg subcutaneous, urine up to 6 hours, bioassay
Experimental: ICR male mice (body weight: 20-30 g) were used. Each compound was dissolved in an M/15 phosphate buffer (pH 7.0) and administered in an amount of 20 mg/kg by the subcutaneous route. Urine was collected up to 6 hours after the administration. The concentration of the compound was determined by the bioassey technique (the agar-well method) using Pseudomonas aeruginosa as a test microorganism. On the basis of the thus-determined concentration, its excreted amount was obtained. The urinary excretion rate was then calculated from the excreted amount based on the amount administered.

Solubility in water = format: physicochemical; settings: in distilled water at 25° C.

**Q.** With `CO[C@@]1(NC(=O)[C@H](NC(=O)c2c(C)oc3cc(OC(C)=O)c(OC(C)=O)cc3c2=O)c2ccc(OCC(=O)O)cc2)C(=O)N2C(C(=O)O)=C(CSc3nnnn3CC(=O)O)CS[C@@H]21` [Example 21] as the compound, how does the MIC (Staph. aureus 209-P) read?
**A.** 100 µg/mL (≈ 110 µM)

**Q.** And the MIC (Escher. coli NIHJ)?
**A.** 0.4 µg/mL (≈ 0.439 µM)

**Q.** And the MIC (Kleb. pneumoniae EK-6)?
**A.** ≤ 0.05 µg/mL

**Q.** And the MIC (Proteus morganii EP-14)?
**A.** 3.13 µg/mL (≈ 3.43 µM)

**Q.** And the MIC (Pseud. aeruginosa EP-01)?
**A.** 0.2 µg/mL (≈ 0.219 µM)

**Q.** What about the MIC (Ser. marcescens ES-75) of the same compound?
**A.** 0.1 µg/mL (≈ 0.11 µM)

**Q.** And the MIC (Proteus vulgaris E-18)?
**A.** 0.4 µg/mL (≈ 0.439 µM)

**Q.** Which results are given for `CO[C@@]1(NC(=O)[C@H](NC(=O)c2coc3cc(O)c(O)cc3c2=O)c2ccc(OCC(=O)O)cc2)C(=O)N2C(C(=O)O)=C(COC(C)=O)CS[C@@H]21` [Example 31, 7β-[D-2-(4-Carboxymethoxyphenyl)-2-(6,7-dihydroxy-4-oxo-4H-1-benzopyran-3-carboxamido)acetamido]-7α-methoxy-3-acetoxymethyl-3-cephem-4-carboxylic acid]?
**A.** MIC (Staph. aureus 209-P): 50 µg/mL (≈ 70.1 µM); MIC (Escher. coli NIHJ): 0.8 µg/mL (≈ 1.12 µM); MIC (Kleb. pneumoniae EK-6): ≤ 0.05 µg/mL; MIC (Proteus morganii EP-14): 6.25 µg/mL (≈ 8.76 µM); MIC (Pseud. aeruginosa EP-01): 0.4 µg/mL (≈ 0.561 µM); MIC (Ser. marcescens ES-75): 0.4 µg/mL (≈ 0.561 µM); MIC (Proteus vulgaris E-18): 1.56 µg/mL (≈ 2.19 µM)

**Q.** With `CO[C@@]1(NC(=O)[C@H](NC(=O)c2c(C)oc3cc(O)c(O)cc3c2=O)c2ccc(OCC(=O)O)cc2)C(=O)N2C(C(=O)O)=C(COC(C)=O)CS[C@@H]21` [Example 33, Disodium 7β-[D-2-(4-carboxymethoxyphenyl)-2-(6,7-dihydroxy-2-methyl-4-oxo-4H-1-benzopyran-3-carboxamido)acetamido]-7α-methoxy-3-acetoxymethyl-3-cephem-4-carboxylate] as the compound, how does the MIC (Staph. aureus 209-P) read?
**A.** 50 µg/mL

**Q.** What about the MIC (Escher. coli NIHJ) of the same compound?
**A.** 0.8 µg/mL

**Q.** What about the MIC (Kleb. pneumoniae EK-6) of the same compound?
**A.** ≤ 0.05 µg/mL

**Q.** And the MIC (Proteus morganii EP-14)?
**A.** 12.5 µg/mL

**Q.** What about the MIC (Pseud. aeruginosa EP-01) of the same compound?
**A.** 0.2 µg/mL

**Q.** What about the MIC (Ser. marcescens ES-75) of the same compound?
**A.** 0.8 µg/mL

**Q.** And the MIC (Proteus vulgaris E-18)?
**A.** 1.56 µg/mL

**Q.** With `CO[C@@]1(NC(=O)[C@H](NC(=O)c2coc3cc(O)c(O)cc3c2=O)c2ccc(OCC(=O)O)cc2)C(=O)N2C(C(=O)O)=C(CSc3nnnn3CC(=O)O)CS[C@@H]21` [Example 30, Trisodium 7β-[D-2-(4-carboxymethoxyphenyl)-2-(6,7-dihydroxy-4-oxo-4H-1-benzopyran-3-carboxamido)-acetamido]-7α-methoxy-3-(1-carboxymethyl-5-tetrazolyl)-thiomethyl-3-cephem-4-carboxylate] as the compound, how does the MIC (Staph. aureus 209-P) read?
**A.** 100 µg/mL

**Q.** What about the MIC (Escher. coli NIHJ) of the same compound?
**A.** 0.8 µg/mL

**Q.** What about the MIC (Kleb. pneumoniae EK-6) of the same compound?
**A.** ≤ 0.05 µg/mL

**Q.** And the MIC (Proteus morganii EP-14)?
**A.** 6.25 µg/mL

**Q.** And the MIC (Pseud. aeruginosa EP-01)?
**A.** 0.4 µg/mL

**Q.** And the MIC (Ser. marcescens ES-75)?
**A.** 0.2 µg/mL

**Q.** What about the MIC (Proteus vulgaris E-18) of the same compound?
**A.** 0.8 µg/mL

**Q.** What about the LD50 [1] of the same compound?
**A.** ≥ 4000 mg/kg

**Q.** With `CCn1cc(C(=O)NC(C(=O)NC2C(=O)N3C(C(=O)O)=C(CSc4nnnn4C)CSC23)c2ccc(OCC(=O)O)cc2)c(=O)c2cc(OC(C)=O)c(OC(C)=O)cc21` (stereo not shown) [Example 11] as the compound, how does the MIC (Staph. aureus 209-P) read?
**A.** 12.5 µg/mL (≈ 14.7 µM)

**Q.** And the MIC (Escher. coli NIHJ)?
**A.** 0.2 µg/mL (≈ 0.235 µM)

**Q.** And the MIC (Kleb. pneumoniae EK-6)?
**A.** ≤ 0.05 µg/mL

**Q.** What about the MIC (Proteus morganii EP-14) of the same compound?
**A.** 0.4 µg/mL (≈ 0.47 µM)

**Q.** What about the MIC (Pseud. aeruginosa EP-01) of the same compound?
**A.** 0.1 µg/mL (≈ 0.118 µM)

**Q.** And the MIC (Ser. marcescens ES-75)?
**A.** ≤ 0.05 µg/mL

**Q.** And the LD50 [1]?
**A.** ≥ 4000 mg/kg

**Q.** For `Cc1oc2cc(O)c(O)cc2c(=O)c1C(=O)N[C@@H](C(=O)N[C@@H]1C(=O)N2C(C(=O)[O-])=C(C[n+]3ccc(C(=O)O)cc3)CS[C@H]12)c1ccc(OCC(=O)O)cc1` [Example 55, Disodium 7β-[D-2-(4-carboxymethoxyphenyl)-2-(6,7-dihydroxy-2-methyl-4-oxo-4H-1-benzopyran-3-carboxamido)acetamido]-3-(4-carboxypyridinium)-methyl-3-cephem-4-carboxylate], which MIC (Staph. aureus 209-P) is on record?
**A.** 100 µg/mL

**Q.** And the MIC (Escher. coli NIHJ)?
**A.** 0.4 µg/mL

**Q.** And the MIC (Kleb. pneumoniae EK-6)?
**A.** ≤ 0.05 µg/mL

**Q.** What about the MIC (Proteus morganii EP-14) of the same compound?
**A.** 6.25 µg/mL

**Q.** And the MIC (Pseud. aeruginosa EP-01)?
**A.** ≤ 0.05 µg/mL

**Q.** What about the MIC (Ser. marcescens ES-75) of the same compound?
**A.** 0.4 µg/mL

**Q.** What about the LD50 [1] of the same compound?
**A.** ≥ 4000 mg/kg

**Q.** For `CCn1cc(C(=O)N[C@@H](C(=O)N[C@@H]2C(=O)N3C(C(=O)[O-])=C(C[n+]4ccc(C(N)=O)cc4)CS[C@H]23)c2ccc(OCC(=O)O)cc2)c(=O)c2cc(O)c(O)cc21` [Example 53, Sodium 7β-[D-2-(4-carboxymethoxyphenyl)-2-(6,7-dihydroxy-1-ethyl-1,4-dihydro-4-oxoquinoline-3-carboxamido)acetamido]-3-(4-carbamoylpyridinium)-methyl-3-cephem-4-carboxylate], which MIC (Staph. aureus 209-P) is on record?
**A.** 50 µg/mL

**Q.** What about the MIC (Escher. coli NIHJ) of the same compound?
**A.** 0.4 µg/mL

**Q.** And the MIC (Kleb. pneumoniae EK-6)?
**A.** ≤ 0.05 µg/mL

**Q.** And the MIC (Proteus morganii EP-14)?
**A.** 6.25 µg/mL

**Q.** And the MIC (Pseud. aeruginosa EP-01)?
**A.** 0.2 µg/mL

**Q.** What about the MIC (Ser. marcescens ES-75) of the same compound?
**A.** 0.8 µg/mL

**Q.** What about the dose excreted at 6 h [2] of the same compound?
**A.** 13%

**Q.** And the solubility (Solubility in water)?
**A.** ≥ 300 mg/mL

**Q.** What about the LD50 [1] of the same compound?
**A.** ≥ 4000 mg/kg
